Reference: patent US12138293B2 (priority 2020, dated 2024)
Several values for one entry are separate records, joined by “and”; a condition that tells them apart may be missing. Equal values may be shown once. Read-outs that look alike come from different tables or passages of the source. Residues, ends and D or L forms follow the SMILES beside them.

Assays:
[1] = test system: heptanol-induced corneal erosion (chemical burn injury) in rabbit eyes; details: in vivo
[2] = test system: transepithelial PTK injury of rabbit corneas; design: species or system rabbits; details: in vivo
[3] = test system: nitrogen mustard (NM)-exposed cornea; design: species or system New Zealand white rabbits; details: rabbit, in vivo
[4] = type: physicochemical
[5] = test system: eye of Dutch Belted rabbits; details: rabbit, in vivo
[6] = rabbit, in vivo
[7] = rabbit, in vivo; remark: listed apart in the source
in vivo = details: rabbit

CC[C@H](C)[C@H](NC(=O)[C@H](CCC(=O)O)NC(=O)[C@H](CC(C)C)NC(=O)[C@H](CC(=O)O)NC(=O)[C@H](CC(=O)O)NC(=O)[C@@H]1CCCN1C(=O)[C@H](CCCNC(=N)N)NC(=O)[C@@H]1CCCN1C(=O)[C@H](CCCNC(=N)N)NC(=O)[C@H](CCCCN)NC(=O)[C@H](CCCCN)NC(=O)[C@H](Cc1c[nH]c2ccccc12)NC(=O)[C@@H]1CCCN1C(=O)[C@H](CCCCN)NC(=O)[C@H](CCCNC(=N)N)NC(=O)[C@H](CCCNC(=N)N)NC(=O)[C@H](CC(N)=O)NC(=O)[C@@H]1CCCN1C(=O)[C@H](Cc1ccccc1)NC(=O)[C@H](Cc1c[nH]c2ccccc12)NC(=O)[C@@H](NC(=O)[C@H](CCCCN)NC(=O)[C@@H]1CCCN1C(=O)[C@H](CCC(N)=O)NC(=O)[C@H](CCCNC(=N)N)NC(=O)CCCCCNC(=O)CCCC[C@@H]1SC[C@@H]2NC(=O)N[C@@H]21)[C@@H](C)CC)C(=O)O [aCT1, RQPKIWFPNRRKPWKK RPRPDDLEI] (HELM PEPTIDE1{[O=C1N[C@H]2[C@H](CS[C@H]2CCCCC(=O)[*:2])N1].[O=C(CCCCCN[*:1])[*:2]].R.Q.P.K.I.W.F.P.N.R.R.K.P.W.K.K.R.P.R.P.D.D.L.E.I}$$$$V2.0; N-terminus and C-terminus assumed)
Corneal healing measured by central corneal thickness [1]: accelerated corneal healing
Corneal healing measured by fluorescein staining [1]: accelerated corneal healing
Corneal healing (fluorescein staining) [2]: accelerated corneal healing
Corneal edema (corneal thickness) [3]: limited corneal edema damage
Corneal fibroblasts/keratocytes [3]: protection of corneal fibroblasts/keratocytes
Expression of COX-2 [3]: reduced
Formation of new blood vessels in the corneal stroma [3]: limited the formation of new blood vessels
Inflammatory cell infiltration in the corneal stroma (H&E) [3]: significantly decreases inflammatory cell infiltration
MMP-9 expression in the stroma [3]: reduction in MMP-9 expression
VEGF expression [3]: decreased
Loss of Purity ([4]; pH 6.5): 0.67% and 0.24% and 0.03% and 0.76% and 1.05%
Loss of Purity (%) ([4]; pH 6.5): 0.44% and 0.39% and 0.30% and 0.19% and 0.06%
Loss of Purity (%) ([4]; pH 7): 0.33%
Loss of Purity (%) ([4]; pH 7.5): 0.50%
Contact of saline formulation with the ocular surface [5]: did not remain in contact with the ocular surface for a period of time sufficient
Maximum tolerated dose (MTD) [6]: no maximum tolerated dose (MTD) was identified
Microscopic findings in the eye tissues [6]: no microscopic findings
No observed adverse effect level (NOAEL) [6]: 1.0 μmol/eye
Tolerability (cage-side or clinical observations, body weight, clinical pathology, organ weight, necropsy) [6]: well-tolerated and did not result in any adverse findings
Vitreous humor levels [7]: quantifiable levels
Whole blood concentration, all other samples [7]: below the lower limit of quantitation (LLOQ)
Tmax (in vivo; both): 15 min
tissue level at time at 0.25 h (in vivo; both, topical or ocular, 0.1 umol/eye/dose, Retinal tissue concentration): 1.91 to 24.2 ng/g
tissue level at time at 0.25 h (in vivo; female, topical or ocular, 0.1 umol/eye/dose, Cornea mean level): 181 ± 50 ng/g
tissue level at time at 0.25 h (in vivo; female, topical or ocular, 0.1 umol/eye/dose, Palpebral conjunctiva highest mean concentration): 2730 ± 697 ng/g
level at 0.25 h (in vivo; male, topical or ocular, 0.1 umol/eye/dose): 3.26 ± 5.28 ng/mL
tissue level at time at 0.25 h (in vivo; male, topical or ocular, 0.1 umol/eye/dose, Aqueous humor mean level): 115 ± 76.3 ng/g
tissue level at time at 0.25 h (in vivo; male, topical or ocular, 0.1 umol/eye/dose, Palpebral conjunctiva highest mean concentration): 939 ± 228 ng/g
